Measured values reported in publication PMC7937321 (Genes and Environment, 2021).
“Also recorded” adds a separate entry of the source. Read-outs that look alike come from different tables or passages of the source.

What was measured:
rodent [1] = details: cited from earlier work; for carcinogenicity: report of the National Toxicology Program, ref [24]; for Carcinogenicity Studies: rodent, ref [20]-[41], Table 2
livers of rats = details: ref [74]; cited from earlier work
gpt transgenic rats = test system: gpt transgenic rats; set-up: method as in PMID 20026473, doi:10.3123/jemsge.34.25; details: ref [23], [78]; cited from earlier work
[2] = test system: L5178Y mouse lymphoma cells; set-up: key to MLA (TK gene locus), Without S9 / MLA (TK gene locus), With S9: Positive; Negative; details: cited from earlier work
[3] = test system: human lymphoblastoid TK6 cells, thymidine kinase gene; experiment: TK gene mutation assay (TK6 assay, OECD TG490); details: for TK6 assay overall judgment: all treatments; for TK mutation assay, With S9 / TK mutation assay, Without S9: short-term 4 h; for TK mutation assay, With S9: with rat liver S9
rats [4] = details: ref [75]; cited from earlier work
mouse organs = details: ref [80]; cited from earlier work
rats [5] = details: cited from earlier work
LacI transgenic mice = details: ref [77]; cited from earlier work
[6] = test system: TA1538, TA100, TA98, TA97, TA1535; details: cited from earlier work; for Bacterial reverse mutation assay, With S9 / Bacterial reverse mutation assay, Without S9: ref [18]-[40], Table 2
TK6 cells [7] = details: human
Protocol: (§1) Briefly, test substances were dissolved in an appropriate solvent (DMSO or ethanol) and then serially diluted to prepare final concentrations. […] The 4 h and 24 h treatments were conducted by shaking and static exposures, respectively. After treatment with test substances, cells were centrifuged (1000 rpm, 5 min), supernatants were removed, and cells were washed with a serum-free medium or Hank’s Balanced Salt Solution. After centrifugation (1000 rpm, 5 min) to remove the supernatant, cells (2 × 10^7 cells) were dispersed in an RPMI medium containing 10% serum, and cell concentration was measured. Treated cells were cultured at 37 °C with 5% CO2 condition and used for TK6 assays. At that time, to calculate the cloning efficiency (CE) (Eq. 1), the cells were cultured in a 96-well microplate at a concentration of about 1.6 cells/well for 2 weeks.
(§2) CE, the cell colony formation rate, was calculated using Eq. 1 according to the Poisson distribution equation. EW was the number of wells without colonies, and TW was the total number of wells. N was the average number of cells per well (N = 1.6). 1 CE=−lnEW/TW/N
(§3) Additionally, CE was adjusted by the following calculation (Eq. 2) due to cell loss when exposure caused cytotoxicity. “The number of cells at the end of the treatment” was the number of cells obtained after centrifugation at the end of the treatment in the above-described exposure treatment of the test substance. The “cell number at the start of treatment” was 2 × 10^7. 2 AdjustedCE=CE×number of cellsatendof treatment/number of cellsatthe start of treatment
(§4) CE0 seeding, in which cells were seeded immediately after treatment, and CE3 seeding, in which cells were seeded 3 days after treatment, to examine cell viability in the TK6 assay described below. The relative cell viability RS0 (%) just after the treatment with the test substance was calculated from CE0, following Eq. 3. The survival rate of the negative control group was defined as 100%. 3 RS0%=adjusted CE0 of treatment culture/adjusted CE0 of solvent control×100
(§5) The TK6 assay is conducted between 20 and 10% RS0 as a maximum dose if cytotoxicity is observed. […] When the main TK6 assay was difficult to conduct under the condition of RS0 values from 20 to 10%, the test was conducted between 20 and 10% relative total growth (RTG), described later, as a maximum dose.
(§6) Besides RS0, relative suspension growth (RSG) and RTG as other cytotoxicity indices (Eq. 4) were used. When cells were cultured for 3 days after treatment with the test substance, suspension cell growth ratio 1 (SG1) was the growth ratio from day 0 to day 1 (cell concentration on day 1/cell concentration on day 0). The suspension cell growth ratio 2 (SG2) was the growth ratio from day 1 to day 2 (cell concentration on day 2/cell concentration on day 1). The RSG value was calculated by dividing the total SG value of the untreated group for 3 days by the total SG value of the treated group for the same 3 days (Eq. 4).
(§7) On the third day of culture, CE3 plates for determining plating efficiency and mutant frequency (MF) plates for mutation detection were prepared. CE3 plates were seeded in 96-well microplates at a concentration of about 1.6 cells/well.

rodent [8] = details: cited from earlier work
TK6 cells [9] = experiment: Cytotoxicity in the TK6 assay (CE, RS, RSG, RTG)
Protocol: as §1, §2, §3, §4, §5, §6, §7

[10] = test system: human lymphoblastoid TK6 cells, thymidine kinase gene
mammalian cells = test system: mammalian cells; set-up: method as in PMID 32152633; details: ref [10], [11]; cited from earlier work
[11] = test system: 3-D reconstituted human skin cells; set-up: method as in PMID 32152633; details: ref [10], [11]; cited from earlier work
in vitro = details: human
Protocol: as §1, §2, §3, §4, §5, §6, §7

[12] = test system: human lymphoblastoid TK6 cells, thymidine kinase gene; set-up: method as in PMID 2184322; details: 96 h of exposure, absence of S9; ref [67]; cited from earlier work
human lymphocytes = test system: human lymphocytes; set-up: method as in PMID 22539226; details: in vitro; ref [6]; cited from earlier work
mice = test system: mice; set-up: method as in PMID 22539226; details: ref [6]; cited from earlier work
[13] = chromosomal Aberration test, micronucleus test, transgenic rodent gene mutation assay, ref [48], [58]–[63]
[14] = Short-term treatment with metabolic activation
[15] = Short-term treatment without metabolic activation

Cc1ccc(N)cc1N [2,4-Diaminotoluene, reference compound]
carcinogenicity (rodent [1]): carcinogenic
DNA adducts in the livers of rats (livers of rats): Significant DNA adducts were detected

Cc1c(N)cccc1N [2,6-Diaminotoluene]
gpt mutagenic assay with transgenic rats (gpt transgenic rats): negative
carcinogenicity (rodent [1]): non-carcinogenic
Carcinogenicity Studies (rodent [1]): Neg
mutagenicity in MLA using L5178Y mouse lymphoma cells ([2]; 4 h, −S9, ref [68]): occurs
MLA (TK gene locus), Without S9 ([2]; ref [27], [46]-[53], Table 3): Pos
TK6 assay result (mutant frequency increase, judgment) ([3]; 4h treatment (+S9)): Statistically significant increases of MF; also recorded: mutagenic
TK6 assay result (mutant frequency increase, judgment) ([3]; 4h treatment (-S9)): negative
TK mutation assay, Long term ([3]; 24 h, without S9): Pos
TK6 assay result (mutant frequency increase, judgment) ([3]; 24h treatment (-S9)): Statistically significant increases of MF; also recorded: positive; also recorded: mutagenic
TK6 assay overall judgment [3]: positive
TK mutation assay, With S9 [3]: Pos
TK mutation assay, Without S9 ([3]; without S9): Neg
hepatocellular proliferation in rats (rats [4]): negative
comet assay of various mouse organs (mouse organs): negative
UDS assay (rats [5]; high dose, ref [79]): positive
unscheduled DNA synthesis (UDS) assay in rats (rats [5]; ref [76]): negative
DNA adducts in the livers of rats (livers of rats): marginal amount of adducts
mutagenic assay with LacI transgenic mice (LacI transgenic mice): negative
The Highest Specific Activity and the Strain ([6]; TA100 with S9, ref Table 2): 1703 revertants/mg in TA100 with S9
Bacterial reverse mutation assay, With S9 [6]: Pos
Bacterial reverse mutation assay, Without S9 [6]: Neg
cytotoxicity (TK6 cells [7]): More than 80%
in vivo genotoxicity tests (rodent [8]; [13]): negative

Cl.ClCc1ccccn1 [2-(Chloromethyl) pyridine HCl]
cytotoxicity (relative colony efficiency) (TK6 cells [9]; 60 μg/mL, absence of S9, short-term): About 80%
cytotoxicity (relative colony efficiency) (TK6 cells [9]; 100 μg/mL, presence of S9, short-term): About 80%
Carcinogenicity Studies (rodent [1]): Neg
MLA (TK gene locus), With S9 ([2]; with S9, ref [27], [46]-[53], Table 3): Pos
MLA (TK gene locus), Without S9 ([2]; ref [27], [46]-[53], Table 3): Pos
TK6 assay result (mutant frequency increase, judgment) ([3]; 4h treatment (+S9)): clear concentration-dependent increase of MF
TK6 assay result (mutant frequency increase, judgment) ([3]; 4h treatment (-S9)): clear concentration-dependent increase of MF
Dunnett type test, test statistic [3, 14]: 5.868
Trend test, test statistic [3, 14]: 3.912
Dunnett type test, test statistic [3, 15]: 5.268
Trend test, test statistic [3, 15]: 3.417
TK6 assay overall judgment [3]: positive
TK mutation assay, With S9 [3]: Pos
TK mutation assay, Without S9 ([3]; without S9): Pos
The Highest Specific Activity and the Strain ([6]; TA100 with S9, ref Table 2): 98.6 revertants/mg in TA100 with S9
Bacterial reverse mutation assay, With S9 [6]: Pos
Bacterial reverse mutation assay, Without S9 [6]: Pos
in vivo genotoxicity tests (rodent [8]; in vivo): negative

Oc1cccc2cccnc12 [8-Hydroxyquinoline]
Carcinogenicity Studies (rodent [1]): Neg
MLA (TK gene locus), Without S9 ([2]; ref [27], [46]-[53], Table 3): Pos
TK mutation assay, With S9 [10]: Pos
TK mutation assay, Without S9 [10]: Neg
Trend test, test statistic ([10]; human): 4.896 / 1.645 / p < 0.05
The Highest Specific Activity and the Strain ([6]; TA97 with S9, ref [28]): 21,400 revertants/mg
The Highest Specific Activity and the Strain ([6]; TA100 with S9, ref Table 2): 16,000 revertants/mg
specific activity values obtained from Ames test ([6]; ref Table 2): exceeding 10,000 revertants per milligram
Bacterial reverse mutation assay, With S9 [6]: Pos
Bacterial reverse mutation assay, Without S9 [6]: Neg
in vivo genotoxicity tests (rodent [8]; [13]): negative

C[N+](C)(C)c1ccc2ccc(O)c(N=Nc3ccc(N)c([N+](=O)[O-])c3)c2c1.[Cl-] [Basic Brown 17]
mutation assays using mouse lymphoma ([2]; two loci of TK and HPRT, ref [10], [11]): negative
in vitro micronucleus test using mammalian cells (mammalian cells): negative
comet assay with 3-D reconstituted human skin cells [11]: negative
Ames test ([6]; ref [10], [11]): positive

COS(C)(=O)=O [MMS, methyl methanesulfonate]
Mut. freq. T-MF (MF) ([10]; human, 4 h, 3 μg/mL): 23.9 ×10-6
MF ([10]; human, 4 h, 5 μg/mL): 71.7
Mut. freq. N-MF ([10]; human, 4 h, 5 μg/mL): 29.3 ×10-6
Mut. freq. S-MF ([10]; human, 4 h, 5 μg/mL): 42.3 ×10-6
Mut. freq. T-MF ([10]; human, 4 h, 5 μg/mL): 71.7 ×10-6
%SG ([10]; human, 24 h, 1 μg/mL): 59.3%
Mut. freq. (×10-6) N-MF ([10]; human, 24 h, 1 μg/mL): 14.0 ×10-6
Mut. freq. (×10-6) S-MF ([10]; human, 24 h, 1 μg/mL): 20.5 ×10-6
Mut. freq. (×10-6) T-MF ([10]; human, 24 h, 1 μg/mL): 34.5 ×10-6
MF ([10]; human, 24 h, 2 μg/mL): 86.4
Mut. freq. (×10-6) N-MF ([10]; human, 24 h, 2 μg/mL): 25.3 ×10-6
Mut. freq. (×10-6) S-MF ([10]; human, 24 h, 2 μg/mL): 39.7 ×10-6
Mut. freq. (×10-6) T-MF ([10]; human, 24 h, 2 μg/mL): 65.0 ×10-6
Mut. freq. N-MF ([10]; human, 24 h, 2 μg/mL): 51.4 ×10-6
Mut. freq. S-MF ([10]; human, 24 h, 2 μg/mL): 34.9 ×10-6
Mut. freq. T-MF ([10]; human, 24 h, 2 μg/mL): 86.4 ×10-6
viability at 4 h, 3 μg/mL (in vitro; CE0 (%), cell viability on Day 0): 27.3%
viability at 4 h, 3 μg/mL (in vitro; CE3 (%), cell viability on Day 3): 70.6%
CE0 (%) (TK6 cells [7]; 4 h, 3 μg/mL): 48.8%
CE0 (%), cell viability on Day 0 (TK6 cells [7]; 4 h, 3 μg/mL): 38.3%
CE3 (%) (TK6 cells [7]; 4 h, 3 μg/mL): 56.3%
CE3 (%), cell viability on Day 3 (TK6 cells [7]; 4 h, 3 μg/mL): 54.7%
Daily cell growth Day 1×2×3 (TK6 cells [7]; 4 h, 3 μg/mL): 8.36
Adjusted CE0 (TK6 cells [7]; 4 h, 5 μg/mL): 30.4%
CE0 (TK6 cells [7]; 4 h, 5 μg/mL): 32.6%
Daily cell growth Day 1×2×3 (TK6 cells [7]; 4 h, 5 μg/mL): 7.40
RS (TK6 cells [7]; 4 h, 5 μg/mL): 35.0
RS0 (TK6 cells [7]; 4 h, 5 μg/mL): 35.0%
RSG (TK6 cells [7]; 4 h, 5 μg/mL): 0.357
Adjusted CE0(%) (TK6 cells [7]; 24 h, 1 μg/mL): 133.2%
CE0 (%) (TK6 cells [7]; 24 h, 1 μg/mL): 63.1%
CE3 (TK6 cells [7]; 24 h, 1 μg/mL): 0.866
CE3 (%) (TK6 cells [7]; 24 h, 1 μg/mL): 86.6%
Daily cell growth Day 1×2×3 (TK6 cells [7]; 24 h, 1 μg/mL): 15.58
RS0 (%) (TK6 cells [7]; 24 h, 1 μg/mL): 59.4%
RSG (TK6 cells [7]; 24 h, 1 μg/mL): 0.886
Adjusted CE0 (TK6 cells [7]; 24 h, 2 μg/mL): 8.3%
Adjusted CE0(%) (TK6 cells [7]; 24 h, 2 μg/mL): 42.0%
CE0 (TK6 cells [7]; 24 h, 2 μg/mL): 14.6%
CE0 (%) (TK6 cells [7]; 24 h, 2 μg/mL): 21.6%
CE3 (%) (TK6 cells [7]; 24 h, 2 μg/mL): 81.6%
RS (TK6 cells [7]; 24 h, 2 μg/mL): 12.2
RS0 (TK6 cells [7]; 24 h, 2 μg/mL): 12.2%
RS0 (%) (TK6 cells [7]; 24 h, 2 μg/mL): 18.7%

Nc1ccc(-c2ccc(N)cc2)cc1 [benzidine]
Mutagenicity in human TK6 cells [12]: Mutagenicity was confirmed

CSc1ccc(OCc2ncc([N+](=O)[O-])n2C)cc1 [fexinidazole, reference compound]
micronucleus test in human lymphocytes (human lymphocytes): negative
ex vivo unscheduled DNA synthesis in rats (rats [5]; ref [6]): negative
Ames test ([6]; ref [6]): positive
bone marrow micronucleus test in mice (mice): negative
